Data: ChEMBL document CHEMBL4418497, “Compositions and methods relating to inhibiting serine hyrdoxymethyltransferase 2 activity” (2016)

What was measured:
[1] = molecular target: T1, Serine hydroxymethyltransferase, mitochondrial (Homo sapiens) (UniProt P34897); experiment: Inhibition of His-tagged human recombinant SHMT2 expressed in Escherichia coli BLR(DE3) assessed as reduction in NADPH level using L-serine, THF and NADP+ at 6.5 or 26.5 uM incubated for 5 mins by SHMT2-MTHFD coupled reaction based fluorescence assay relative to control
T1 sequence (whole entry): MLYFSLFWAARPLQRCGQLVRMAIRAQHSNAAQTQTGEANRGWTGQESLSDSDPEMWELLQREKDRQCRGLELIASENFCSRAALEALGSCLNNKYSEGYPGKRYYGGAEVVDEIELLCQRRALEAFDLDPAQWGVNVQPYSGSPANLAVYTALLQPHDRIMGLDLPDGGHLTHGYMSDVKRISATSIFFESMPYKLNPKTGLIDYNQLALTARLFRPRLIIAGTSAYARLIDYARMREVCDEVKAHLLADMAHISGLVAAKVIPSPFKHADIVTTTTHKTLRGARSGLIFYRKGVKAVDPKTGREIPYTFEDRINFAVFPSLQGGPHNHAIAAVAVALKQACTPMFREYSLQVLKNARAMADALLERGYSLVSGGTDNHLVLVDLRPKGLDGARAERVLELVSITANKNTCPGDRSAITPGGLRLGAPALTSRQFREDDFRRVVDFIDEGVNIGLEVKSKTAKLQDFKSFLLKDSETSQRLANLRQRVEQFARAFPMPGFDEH

[2] = molecular target: T2, Serine hydroxymethyltransferase, mitochondrial (Homo sapiens, UniProt P34897); experiment: Inhibition of His-tagged human recombinant SHMT2 expressed in Escherichia coli BLR(DE3) assessed as reduction in NADPH level using L-serine, THF and NADP+ incubated for 5 mins by SHMT2-MTHFD coupled reaction based fluorescence assay; settings: read-out: IC50
T2 sequence (P34897 whole entry): T1 sequence (whole entry)

| inhibition [1] | IC50 [2] | Compound |
| --- | --- | --- |
| 70% |  | C=C(C)[C@H]1CC=C(C(=O)O)CC1 |
|  | 2.14 µM | COc1ccc(OC)c(NC(=O)CSc2nc3ncccc3o2)c1 |
| 60.1% |  | Cc1cccc(C)c1NC(=O)[C@@H]1CCCCN1C |
|  | 5.13 µM | CCC(CC)C(=O)Nc1cc(F)c2nc(N3CCOCC3)ccc2c1 |
| 97.1% |  | Cc1onc(-c2c(Cl)cccc2Cl)c1NC(=O)Nc1ccc(N(C)C)c(Cl)c1C#N |
|  | 9.33 µM | Cn1cc(NC(=O)N2CCCCC2)c2ccccc2c1=O |
|  | 11 µM | O=C1CSC(c2ccccn2)N1c1ccc2ccccc2c1 (stereo unspecified) |
|  | 6.76 µM | O=C1CN(S(=O)(=O)c2ccc3[nH]c4c(c3c2)CCCC4)c2ccccc2N1 |
|  | 6.31 µM | CC(C)Cn1cc(NC(=O)N(Cc2ccco2)C2CCCCC2C)c2ccccc2c1=O (stereo unspecified) |
|  | 3.72 µM | COc1cc(OC)c(N(C)C(=O)Nc2cn(C)c(=O)c3ccccc23)cc1Cl |
|  | 7.94 µM | Cc1c(C(=O)NCc2cccs2)oc2c1-c1[nH]ncc1CC2 |
|  | 7.41 µM | CCC(CC)n1nc(O)c2c(C)cc(=O)[nH]c21 |
|  | 4.57 µM | O=C1CCCC2=C1C(c1cccs1)N(S(=O)(=O)c1ccc(F)cc1)c1ccccc1N2 (stereo unspecified) |
|  | 9.77 µM | COc1ccc(NC(=O)n2ncc3cc(Cl)ccc32)cc1OC |
|  | 1.86 µM | COc1ccc(Nc2nc(NCCO)nc3c2cnn3C)cc1 |
|  | 10.7 µM | CC1CC(C)CN(CCCNC(=O)Nc2cn(C)c(=O)c3ccccc23)C1 (stereo unspecified) |
|  | 5.13 µM | CNC(=O)c1oc2c(c1C)C1N=C(C)SC1CC2 (stereo unspecified) |
|  | 8.13 µM | COc1cc(NC(=O)C2CCC2)cc2sc(NS(=O)(=O)c3ccccc3)nc12 |
|  | 0.54 µM | COc1ccc(-c2nc3c4nsnc4ccc3n2C)cc1Br |
|  | 9.77 µM | CC(C)NC(=O)N1CCC2(CC1)Nc1cc(F)ccc1-n1cccc12 |
|  | 8.51 µM | Cc1cc(CNC(=O)Nc2ccc3c(c2)OCCO3)c(C)n1-c1ccc(Cl)cc1 |
|  | 7.76 µM | COc1ccc(NS(=O)(=O)c2cc(Br)cnc2N)cc1OC |
|  | 3.24 µM | CC(C)Cn1cc(NC(=O)NCC2CCN(CCc3cccs3)CC2)c2ccccc2c1=O |
|  | 4.07 µM | COc1ccc(OC)c(NS(=O)(=O)c2ccc3c(c2)S(=O)(=O)NC=N3)c1 |
|  | 2.34 µM | CCC(C)NC(=O)Nc1cn(CC(C)C)c(=O)c2ccccc12 (stereo unspecified) |
|  | 3.39 µM | COc1ccc(NC(=O)N2CCN3CCCCC3C2)cc1OC (stereo unspecified) |

| inhibition [1] | IC50 [2] | Compound |
| --- | --- | --- |
|  | 2.24 µM | CC(C)Cn1cc(NC(=O)NC2CCCC2)c2ccccc2c1=O |
|  | 7.94 µM | CCC1c2ccc(C)n2CCN1C(=O)Nc1cc(OC)cc(OC)c1 (stereo unspecified) |
|  | 11.5 µM | COc1cc(NC2=C(c3ccccc3)C(=O)c3ccccc32)cc(OC)c1 |
|  | 4.07 µM | Cc1nn(C)c(C)c1CNC(=O)Nc1ccc2c(c1)OCCO2 |
|  | 2.75 µM | O=C(CSc1nc2ncccc2o1)Nc1ccc(S(=O)(=O)Nc2ccc(F)cc2)cc1 |
|  | 0.85 µM | Cn1nc(C(=O)N2CC=C(c3ccccc3)CC2)c2c1-c1ccsc1CC2 |
|  | 2.24 µM | CC(C)Cn1cc(NC(=O)Nc2cccnc2)c2ccccc2c1=O |
|  | 8.91 µM | CC(C)Cn1cc(NC(=O)Nc2ccc(N3CCC(C)CC3)cc2)c2ccccc2c1=O |
|  | 4.47 µM | Cn1cc(NC(=O)NCC2CCCO2)c2ccccc2c1=O (stereo unspecified) |
|  | 8.71 µM | CC(C)Cn1cc(NC(=O)NC2CC2)c2ccccc2c1=O |
|  | 3.8 µM | CC(C)Cn1cc(NC(=O)NCCN2CCC(C)CC2)c2ccccc2c1=O |
|  | 3.09 µM | CC(=O)Nc1ccc2nc(SCc3cc(=O)n4nc(C)sc4n3)sc2c1 |
|  | 4.17 µM | CCN(CC)CCNC(=O)c1noc2c1CCc1sccc1-2 |
|  | 3.02 µM | O=C(CSc1nc2ncccc2o1)Nc1ccc(S(=O)(=O)NC2CCCCC2)cc1 |
|  | 1.82 µM | O=C(CSc1nc2ncccc2o1)Nc1ccc(Br)cc1F |
|  | 8.51 µM | CCC1=NN(c2ccccc2)C(=O)C1 |
|  | 4.37 µM | COc1cc(C2CC(=O)N3CN(C4CCCCC4)CSC3=C2C#N)ccc1O (stereo unspecified) |
|  | 7.08 µM | CCCCCC(C)n1nc(O)c2c(C)cc(=O)[nH]c21 (stereo unspecified) |
|  | 10.2 µM | C=CCn1c(=O)sc2cc(NC(=O)Cc3ccc(F)cc3)ccc21 |
|  | 2.24 µM | CC(C)Cn1cc(NC(=O)Nc2cccc(F)c2)c2ccccc2c1=O |
|  | 3.89 µM | COc1ccc(OC)c(NS(=O)(=O)c2cc(-c3cc(C)no3)ccc2C(C)C)c1 |
|  | 2.69 µM | COc1ccc(Nc2nc(NC3CCCC3)nc3c2cnn3C)cc1 |
|  | 1.62 µM | C=CCNc1nc(Nc2ccc(OC)cc2)c2cnn(C)c2n1 |
|  | 4.79 µM | O=C(Nc1ccc2c(c1)OCCO2)N1CCc2c([nH]c3ccccc23)C1c1ccccc1F (stereo unspecified) |
|  | 1.41 µM | CC(=O)N1CCc2c(c(=O)[nH]c3onc(C)c23)C1 |
